Drawing on patent US9474790B2, “Stable, protracted GLP-1/glucagon receptor co-agonists for medical use” (Novo Nordisk A/S, priority 2013, dated 2016), this text covers IC50 for five compounds.

Numbered stars: 1 amine (or outer) side, 2 acyl side, 3 side chain; on linkers, the order of the positions; unused ones are H or OH. Square brackets hold non-standard residues; d marks the D form. Side chains are listed from the residue outwards. Peptide text beside a SMILES is read from it. * marks the point of attachment. C18 diacid = O=C(O)CCCCCCCCCCCCCCCCC(=O)*; γGlu = O=C(O)[C@H](CCC(=O)[*:2])N[*:1]; Ac4c = NC1(C(=O)O)CCC1; AEEA = NCCOCCOCC(=O)O; Aib = CC(C)(N)C(=O)O

For this experiment, the target named is T1, human glucagon receptor (Homo sapiens, UniProt P47871).
T1 construct: expressed in transfected cells; host or cells: BHK cells (parent BHK570, CRE luciferase clone BHK/KZ10-20-48), clone pLJ6'-4-25
T1 sequence (P47871 26-477): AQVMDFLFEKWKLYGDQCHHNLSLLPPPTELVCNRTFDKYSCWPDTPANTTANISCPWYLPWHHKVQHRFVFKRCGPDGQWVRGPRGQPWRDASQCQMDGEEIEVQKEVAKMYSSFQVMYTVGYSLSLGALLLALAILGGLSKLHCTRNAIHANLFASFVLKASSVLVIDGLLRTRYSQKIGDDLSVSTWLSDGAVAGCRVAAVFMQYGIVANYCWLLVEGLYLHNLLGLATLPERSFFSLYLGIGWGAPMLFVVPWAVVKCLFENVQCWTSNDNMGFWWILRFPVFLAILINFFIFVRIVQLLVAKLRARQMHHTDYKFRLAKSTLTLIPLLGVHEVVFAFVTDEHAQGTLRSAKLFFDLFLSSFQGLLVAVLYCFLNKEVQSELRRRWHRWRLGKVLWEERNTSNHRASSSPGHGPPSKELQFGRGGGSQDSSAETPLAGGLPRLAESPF
The experiment can be described thus: Glucagon receptor binding, 125I-glucagon displacement SPA on isolated membranes. The conditions noted are these: displacement of 125I-glucagon from membranes; read-out: IC50 GlucR. A digest of the protocol:
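Membranes from BHK cells stably expressing human glucagon receptor incubated 2 h at 25 °C with [125I]-glucagon (25 μl of 480 pM solution) and serial compound dilutions in WGA SPA format, pH 7.4 buffer with 0.1% ovalbumin. Albumin at max 0.001% or 0.2% final. IC50 from non-linear regression.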
(In a radioligand displacement assay an active substance lowers the binding of a labelled ligand.)
For the compound `CC(C)C[C@H](NC(=O)[C@H](Cc1ccc(O)cc1)NC(=O)[C@H](CCCCN)NC(=O)[C@H](CO)NC(=O)[C@H](CC(C)C)NC(=O)[C@H](CC(=O)O)NC(=O)[C@H](CO)NC(=O)[C@@H](NC(=O)[C@H](Cc1ccccc1)NC(=O)[C@@H](NC(=O)CNC(=O)[C@H](CCC(N)=O)NC(=O)C(C)(C)NC(=O)[C@@H](N)Cc1c[nH]cn1)[C@@H](C)O)[C@@H](C)O)C(=O)N[C@@H](CCC(=O)O)C(=O)N[C@@H](CO)C(=O)N[C@@H](CCCCN)C(=O)N[C@@H](CCCNC(=N)N)C(=O)N[C@@H](C)C(=O)N[C@@H](CCCNC(=N)N)C(=O)N[C@@H](CCC(=O)O)C(=O)N[C@@H](Cc1ccccc1)C(=O)N[C@H](C(=O)N[C@@H](CCC(N)=O)C(=O)N[C@@H](Cc1c[nH]c2ccccc12)C(=O)N[C@@H](CC(C)C)C(=O)N[C@@H](CC(C)C)C(=O)N[C@@H](CCCCNC(=O)CC[C@H](NC(=O)CC[C@H](NC(=O)[C@H](CO)NC(=O)[C@H](CCC(=O)O)NC(=O)[C@H](CO)NC(=O)CC[C@H](NC(=O)CC[C@H](NC(=O)CCCCCCCCCCCCCCCCC(=O)O)C(=O)O)C(=O)O)C(=O)O)C(=O)O)C(=O)N[C@H](C(N)=O)[C@@H](C)O)C(C)C` [Example 54, N^ε28-[(4S)-4-carboxy-4-[[(4S)-4-carboxy-4-[[(2S)-2-[[(2S)-4-carboxy-2-[[(2S)-2-[[(4S)-4-carboxy-4-[[(4S)-4-carboxy-4-(17-carboxyheptadecanoylamino)butanoyl]amino]butanoyl]amino]-3-hydroxypropanoyl]amino]butanoyl]amino]-3-hydroxypropanoyl]amino]butanoyl]amino]butanoyl]-[Aib2,Leu10,Glu15,Lys17,Arg20,Glu21,Leu27,Lys28]-Glucagon amide] (H-H[Aib]QGTFTSDLSKYLESKRAREFVQWLLK([γGlu-γGlu-Ser-Glu-Ser-γGlu-γGlu-C18 diacid])T-NH2; N-terminus assumed), the IC50 was determined as 1.7 nM.

As for `CC(C)C[C@H](NC(=O)[C@H](Cc1ccc(O)cc1)NC(=O)[C@H](CCCNC(=N)N)NC(=O)[C@H](CO)NC(=O)[C@H](CC(C)C)NC(=O)[C@H](CC(=O)O)NC(=O)[C@H](CO)NC(=O)[C@@H](NC(=O)[C@H](Cc1ccccc1)NC(=O)[C@@H](NC(=O)CNC(=O)[C@H](CCC(N)=O)NC(=O)C1(NC(=O)[C@@H](N)Cc2c[nH]cn2)CCC1)[C@@H](C)O)[C@@H](C)O)C(=O)N[C@@H](CCC(=O)O)C(=O)N[C@@H](CO)C(=O)N[C@@H](CCCNC(=N)N)C(=O)N[C@@H](CCCNC(=N)N)C(=O)N[C@@H](C)C(=O)N[C@@H](CCCNC(=N)N)C(=O)N[C@@H](CCC(=O)O)C(=O)N[C@@H](Cc1ccccc1)C(=O)N[C@H](C(=O)N[C@@H](CCC(N)=O)C(=O)N[C@@H](Cc1c[nH]c2ccccc12)C(=O)N[C@@H](CC(C)C)C(=O)N[C@@H](CC(C)C)C(=O)N[C@@H](CCCCNC(=O)CC[C@H](NC(=O)CC[C@H](NC(=O)COCCOCCNC(=O)COCCOCCNC(=O)CC[C@H](NC(=O)CC[C@H](NC(=O)CCCCCCCCCCCCCCCCC(=O)O)C(=O)O)C(=O)O)C(=O)O)C(=O)O)C(=O)N[C@H](C(N)=O)[C@@H](C)O)C(C)C` [Example 59, N^ε28-[(4S)-4-carboxy-4-[[(4S)-4-carboxy-4-[[2-[2-[2-[[2-[2-[2-[[(4S)-4-carboxy-4-[[(4S)-4-carboxy-4-(17-carboxyheptadecanoylamino)butanoyl]amino]butanoyl]amino]ethoxy]ethoxy]acetyl]amino]ethoxy]ethoxy]acetyl]amino]butanoyl]amino]butanoyl]-[Acb2,Leu10,Arg12,Glu15,Arg20,Glu21,Leu27,Lys28]-Glucagon amide] (H-H[Ac4c]QGTFTSDLSRYLESRRAREFVQWLLK([γGlu-γGlu-AEEA-AEEA-γGlu-γGlu-C18 diacid])T-NH2; N-terminus assumed), the IC50 came to 1.4 nM.

Turning to `CC(C)C[C@H](NC(=O)[C@H](Cc1ccc(O)cc1)NC(=O)[C@H](CCCCN)NC(=O)[C@H](CO)NC(=O)[C@H](CC(C)C)NC(=O)[C@H](CC(=O)O)NC(=O)[C@H](CO)NC(=O)[C@@H](NC(=O)[C@H](Cc1ccccc1)NC(=O)[C@@H](NC(=O)CNC(=O)[C@H](CCC(N)=O)NC(=O)C(C)(C)NC(=O)[C@@H](N)Cc1c[nH]cn1)[C@@H](C)O)[C@@H](C)O)C(=O)N[C@@H](CCC(=O)O)C(=O)N[C@@H](CO)C(=O)N[C@@H](CCCNC(=N)N)C(=O)N[C@@H](CCCNC(=N)N)C(=O)N[C@@H](C)C(=O)N[C@@H](CCCNC(=N)N)C(=O)N[C@@H](CCC(=O)O)C(=O)N[C@@H](Cc1ccccc1)C(=O)N[C@H](C(=O)N[C@@H](CCC(N)=O)C(=O)N[C@@H](Cc1c[nH]c2ccccc12)C(=O)N[C@@H](CC(C)C)C(=O)N[C@@H](CC(C)C)C(=O)N[C@@H](CCCCNC(=O)CC[C@H](NC(=O)CC[C@H](NC(=O)COCCOCCNC(=O)COCCOCCNC(=O)CC[C@H](NC(=O)CC[C@H](NC(=O)CCCCCCCCCCCCCCCCC(=O)O)C(=O)O)C(=O)O)C(=O)O)C(=O)O)C(=O)N[C@H](C(N)=O)[C@@H](C)O)C(C)C` [Example 60, N^ε28-[(4S)-4-carboxy-4-[[(4S)-4-carboxy-4-[[2-[2-[2-[[2-[2-[2-[[(4S)-4-carboxy-4-[[(4S)-4-carboxy-4-(17-carboxyheptadecanoylamino)butanoyl]amino]butanoyl]amino]ethoxy]ethoxy]acetyl]amino]ethoxy]ethoxy]acetyl]amino]butanoyl]amino]butanoyl]-[Aib2,Leu10,Glu15,Arg20,Glu21,Leu27,Lys28]-Glucagon amide] (H-H[Aib]QGTFTSDLSKYLESRRAREFVQWLLK([γGlu-γGlu-AEEA-AEEA-γGlu-γGlu-C18 diacid])T-NH2; N-terminus assumed), the IC50 worked out at 4 nM.

As for `CC(C)C[C@H](NC(=O)[C@H](Cc1ccc(O)cc1)NC(=O)[C@H](CCCCN)NC(=O)[C@H](CO)NC(=O)[C@H](CC(C)C)NC(=O)[C@H](CC(=O)O)NC(=O)[C@H](CO)NC(=O)[C@@H](NC(=O)[C@H](Cc1ccccc1)NC(=O)[C@@H](NC(=O)CNC(=O)[C@H](CCC(N)=O)NC(=O)C1(NC(=O)[C@@H](N)Cc2c[nH]cn2)CCC1)[C@@H](C)O)[C@@H](C)O)C(=O)N[C@@H](CCC(=O)O)C(=O)N[C@@H](CO)C(=O)N[C@@H](CCCNC(=N)N)C(=O)N[C@@H](CCCNC(=N)N)C(=O)N[C@@H](C)C(=O)N[C@@H](CCCNC(=N)N)C(=O)N[C@@H](CCC(=O)O)C(=O)N[C@@H](Cc1ccccc1)C(=O)N[C@H](C(=O)N[C@@H](CCC(N)=O)C(=O)N[C@@H](Cc1c[nH]c2ccccc12)C(=O)N[C@@H](CC(C)C)C(=O)N[C@@H](CC(C)C)C(=O)N[C@@H](CCCCNC(=O)CC[C@H](NC(=O)CC[C@H](NC(=O)COCCOCCNC(=O)COCCOCCNC(=O)CC[C@H](NC(=O)CC[C@H](NC(=O)CCCCCCCCCCCCCCCCC(=O)O)C(=O)O)C(=O)O)C(=O)O)C(=O)O)C(=O)N[C@H](C(N)=O)[C@@H](C)O)C(C)C` [Example 61, N^ε28-[(4S)-4-carboxy-4-[[(4S)-4-carboxy-4-[[2-[2-[2-[[2-[2-[2-[[(4S)-4-carboxy-4-[[(4S)-4-carboxy-4-(17-carboxyheptadecanoylamino)butanoyl]amino]butanoyl]amino]ethoxy]ethoxy]acetyl]amino]ethoxy]ethoxy]acetyl]amino]butanoyl]amino]butanoyl]-[Acb2,Leu10,Glu15,Arg20,Glu21,Leu27,Lys28]-Glucagon amide] (H-H[Ac4c]QGTFTSDLSKYLESRRAREFVQWLLK([γGlu-γGlu-AEEA-AEEA-γGlu-γGlu-C18 diacid])T-NH2; N-terminus assumed), the half-maximal inhibitory concentration (IC50) amounted to 1.8 nM.

Turning to `CC(C)C[C@H](NC(=O)[C@H](Cc1ccc(O)cc1)NC(=O)[C@H](CCCNC(=N)N)NC(=O)[C@H](CO)NC(=O)[C@H](CC(C)C)NC(=O)[C@H](CC(=O)O)NC(=O)[C@H](CO)NC(=O)[C@@H](NC(=O)[C@H](Cc1ccccc1)NC(=O)[C@@H](NC(=O)CNC(=O)[C@H](CCC(N)=O)NC(=O)C(C)(C)NC(=O)[C@@H](N)Cc1c[nH]cn1)[C@@H](C)O)[C@@H](C)O)C(=O)N[C@@H](CC(=O)O)C(=O)N[C@@H](C)C(=O)N[C@@H](CCCNC(=N)N)C(=O)N[C@@H](CCCNC(=N)N)C(=O)N[C@@H](C)C(=O)N[C@@H](CCCNC(=N)N)C(=O)N[C@@H](CC(=O)O)C(=O)N[C@@H](Cc1ccccc1)C(=O)N[C@H](C(=O)N[C@@H](CCC(N)=O)C(=O)N[C@@H](Cc1c[nH]c2ccccc12)C(=O)N[C@@H](CC(C)C)C(=O)N[C@@H](CC(C)C)C(=O)N[C@@H](CCCCNC(=O)CC[C@H](NC(=O)CC[C@H](NC(=O)CC[C@H](NC(=O)CCCCCCCCCCCCCCCCC(=O)O)C(=O)O)C(=O)O)C(=O)O)C(=O)N[C@H](C(N)=O)[C@@H](C)O)C(C)C` [Example 62, N^ε28-[(4S)-4-carboxy-4-[[(4S)-4-carboxy-4-[[(4S)-4-carboxy-4-(17-carboxyheptadecanoylamino)butanoyl]amino]butanoyl]amino]butanoyl]-[Aib2,Leu10,Arg12,Ala16,Arg20,Leu27,Lys28]-Glucagon amide] (H-H[Aib]QGTFTSDLSRYLDARRARDFVQWLLK([γGlu-γGlu-γGlu-C18 diacid])T-NH2; N-terminus assumed), the 50% inhibitory concentration (IC50) stood at 3.9 nM.

Usually IC50 stands for the concentration needed to halve the response being measured.
